Test results as given in PMC4169440, “Sequence Analysis and Molecular Characterization of Clonorchis sinensis Hexokinase, an Unusual Trimeric 50-kDa Glucose-6-Phosphate-Sensitive Allosteric Enzyme” (PLoS ONE, 2014).

Tests used:
[1] = biological target: T1, rCsHK (recombinant Clonorchis sinensis hexokinase, CsHK) (Clonorchis sinensis, UniProt G7YJ23); experiment: G6PD-coupled NADPH assay at […] nm; format: biochemical; settings: 3 mM glucose, with respect to ATP
T1 construct: gene CLF_109217; homotrimer about 164 kDa
T1 sequence (G7YJ23 1-449): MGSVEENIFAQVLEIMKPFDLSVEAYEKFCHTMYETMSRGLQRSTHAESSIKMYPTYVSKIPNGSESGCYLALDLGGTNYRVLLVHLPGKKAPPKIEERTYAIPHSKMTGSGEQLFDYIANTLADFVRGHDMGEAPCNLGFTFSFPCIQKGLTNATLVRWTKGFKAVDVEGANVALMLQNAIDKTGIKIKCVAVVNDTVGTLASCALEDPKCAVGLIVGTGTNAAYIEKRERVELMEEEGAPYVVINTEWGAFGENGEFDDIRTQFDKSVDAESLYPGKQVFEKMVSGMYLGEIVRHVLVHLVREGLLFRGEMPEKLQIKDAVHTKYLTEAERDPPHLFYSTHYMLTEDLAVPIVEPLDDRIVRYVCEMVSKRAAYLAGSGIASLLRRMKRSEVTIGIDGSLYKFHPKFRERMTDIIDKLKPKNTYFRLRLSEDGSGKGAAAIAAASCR

[2] = biological target: T1, rCsHK (recombinant Clonorchis sinensis hexokinase, CsHK); experiment: coupled pyruvate kinase / lactate dehydrogenase ADP assay at […] nm; format: biochemical; settings: 0-4 mM G6P; with respect to ATP or glucose; allosteric inhibitor, dose-independent; also product
[3] = biological target: T1, rCsHK (recombinant Clonorchis sinensis hexokinase, CsHK); experiment: G6PD-coupled NADPH assay at […] nm; format: biochemical; settings: read-out: relative enzymatic activity at 4 mM
[4] = substrate: Nc1ncnc2c1ncn2[C@@H]1O[C@H](COP(=O)(O)OP(=O)(O)OP(=O)(O)O)[C@@H](O)[C@H]1O; experiment: purified protein; format: biochemical, Clonorchis sinensis; settings: 3 mM glucose, 15 mM MgCl2, 100 mM Tris-Cl pH 8.5, 37 °C, sigmoidal, Mg-ATP true substrate

## Nc1ncnc2c1ncn2[C@@H]1O[C@H](COP(=O)(O)OP(=O)(O)O)[C@@H](O)[C@H]1O [ADP]
[1]; 0-3 mM ADP, mixed allosteric effector, also product
  G6PD-coupled NADPH assay at 340 nm: ADP, which is a product of HK, exhibited an unusual mixed allosteric effect on CsHK

## O=P(O)(O)OC[C@H]1OC(O)[C@H](O)[C@@H](O)[C@@H]1O (some centres unmarked) [glucose-6-phosphate]
[2]
  coupled pyruvate kinase / lactate dehydrogenase ADP assay at 340 nm: Different concentrations G6P displayed the net allosteric inhibition of rCsHK

## O=P(O)(O)OP(=O)(O)O [inorganic pyrophosphate]
[1]; 0-3 mM PPi, allosteric activator, not a substrate
  G6PD-coupled NADPH assay at 340 nm: Different concentrations of PPi displayed a net allosteric activation of rCsHK with respect to ATP

## O=C(C1CCCCC1)N1CC(=O)N2CCc3ccccc3C2C1 (centres unmarked) [praziquantel]
[3]
  activity at 4000 µM: 45%

B1: rCsHK (recombinant Clonorchis sinensis hexokinase, CsHK) (Clonorchis sinensis) (protein)
chain: T1 sequence (G7YJ23 1-449)
notes: homotrimer about 164 kDa
[4]
  K0.5: 0.459 ± 0.007 mM
